{
  "source": "patent US7041837B2",
  "about": "“Heterocyclic compounds having hypolipidemic, hypocholesteremic activities process for their preparation and pharmaceutical compositions containing them and their use in medicine” (Cadilla Healthcare Limited, priority 2001, dated 2006)",
  "system": "Swiss albino mice",
  "assay": "Serum triglyceride and total cholesterol lowering activity in Swiss albino mice",
  "format": "in vivo",
  "conditions": "male Swiss albino mice, 3 mg/kg/day orally for 6 days, 1 hour after dosing on 6th day",
  "method": "i) Serum Triglyceride and Total Cholesterol Lowering Activity in Swiss Albino Mice:\nMale Swiss albino mice (SAM) were bred in Zydus animal house. All these animals were maintained under 12 hour light and dark cycle at 25±1° C. Animals were given standard laboratory chow (NIN, Hyderabad, India) and water ad libitum. SAM of 20–30 g body weight range were used.\nThe test compounds were administered orally to Swiss albino mice at 0.001 to 50 mg/kg/day dose for 6 days. The compound was administered after suspending it in 0.25% CMC or dissolving it in water, when compound is water-soluble. Control mice were treated with vehicle (0.25% of Carboxymethylcellulose; dose 10 ml/kg).\nThe blood samples were collected on 0th day and in fed state 1 hour after drug administration on 6th day of the treatment. The blood was collected in non heparinised capillary and the serum was analyzed for triglyceride and total cholesterol (Wieland, O. Methods of Enzymatic analysis. Bergermeyer, H., O., Ed., 1963. 211–214; Trinder, P. Ann. Clin. Biochem. 1969. 6:24–27). Measurement of serum triglyceride and total cholesterol was done using commercial kits (Zydus-Cadila, Pathline, Ahmedabad, India).\nPercentage reduction in triglycerides/total cholesterol were calculated according to the formula:\n[formula] • OC=Zero day control group value OT=Zero day treated group value • TC=Test day control group TT=Test day treated group",
  "data": [
    {"smiles": "CCOC(Cc1ccc2cc(OCCn3c(C)ccc3-c3ccc(OC)cc3)ccc2c1)C(=O)OC", "note": "(racemic) [Example 76, (R/S) Methyl-2-ethoxy-3[6-[2-[2-(4-methoxyphenyl)-5-methyl-pyrrol-1-yl]ethoxy]napthalen-2yl]propanoate]", "values": [
      {"measurement": "% Triglyceride lowering", "value": 26, "unit": "%"}
    ]}
  ]
}
